Data reported in paper PMC12210252 (2025).

Assays:
[1] = tested on: AptT4 (SH-5′-AptT4) (DNA, aptamer) CGCCGTTGGTGTTCGGTCAGGCTTCCGTGGCAACGGGGCAAAATGGTAATCGCGGGGAACC; assay: SnS2 field-effect transistor, selectivity test; details: 137 mM NaCl, 2.7 mM KCl, 0.5 mM MgCl2; 1× PBS, pH 7.4; tested at 10 nM against 1 pM T4; low response
[2] = tested on: AptT4 (SH-5′-AptT4) (DNA, aptamer) CGCCGTTGGTGTTCGGTCAGGCTTCCGTGGCAACGGGGCAAAATGGTAATCGCGGGGAACC; assay: SnS2 field-effect transistor, Langmuir isotherm fit; details: 137 mM NaCl, 2.7 mM KCl, 0.5 mM MgCl2; 1× PBS (10 mM Na2HPO4, 2 mM KH2PO4), pH 7.4; aptamer immobilised with PEG

SMILES	binding [1]	K d [2] [pM]
N[C@@H](Cc1cc(I)c(Oc2ccc(O)c(I)c2)c(I)c1)C(=O)O	no	–
N[C@@H](Cc1cc(I)c(Oc2cc(I)c(O)c(I)c2)c(I)c1)C(=O)O	–	14.4 ± 0.8
CC(C)(c1ccc(O)cc1)c1ccc(O)cc1	no	–
